Measured values published in ChEMBL document CHEMBL4808246 (Bioorg Med Chem, 2021).
Each block holds one compound with its values, some of them ahead of it.

What was measured:
[1] = target: T1, Prostaglandin G/H synthase 1 (Ovis aries) (UniProt P05979); test: Inhibition of ovine COX-1 assessed as production of PGE2 using arachidonic acid as a substrate preincubated for 60 mins at 1 uM followed by substrate addition and measured after 2 mins by ELISA analysis relative to control
T1 sequence (whole entry): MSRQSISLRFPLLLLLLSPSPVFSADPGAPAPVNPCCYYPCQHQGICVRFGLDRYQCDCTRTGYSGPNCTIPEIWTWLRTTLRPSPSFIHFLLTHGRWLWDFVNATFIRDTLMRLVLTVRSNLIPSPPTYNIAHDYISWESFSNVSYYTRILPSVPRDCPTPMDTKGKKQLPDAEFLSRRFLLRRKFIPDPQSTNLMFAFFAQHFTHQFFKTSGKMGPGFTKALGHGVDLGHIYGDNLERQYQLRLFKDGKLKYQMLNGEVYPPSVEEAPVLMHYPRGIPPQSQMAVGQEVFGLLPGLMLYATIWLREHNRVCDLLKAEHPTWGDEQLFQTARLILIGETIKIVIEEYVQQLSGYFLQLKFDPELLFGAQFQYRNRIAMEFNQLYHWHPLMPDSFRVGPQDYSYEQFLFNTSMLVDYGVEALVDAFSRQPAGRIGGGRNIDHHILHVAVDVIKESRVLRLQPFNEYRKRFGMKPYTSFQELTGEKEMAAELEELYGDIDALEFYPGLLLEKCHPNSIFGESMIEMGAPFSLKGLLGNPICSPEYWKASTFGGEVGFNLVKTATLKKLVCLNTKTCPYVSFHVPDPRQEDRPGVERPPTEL

RAW264.7 [2] = test: Cytotoxicity against mouse RAW 264.7 cells assessed as decreased cell viability at 100 uM measured after 18 hrs by MTT assay; format: cell-based; conditions: raw264.7, 18 h
[3] = target: T1, Prostaglandin G/H synthase 1 (Ovis aries); test: Inhibition of ovine COX-1 assessed as production of PGE2 using arachidonic acid as a substrate preincubated for 60 mins at 100 uM followed by substrate addition and measured after 2 mins by ELISA analysis relative to control; conditions: time 62.0 min
Mus musculus [4] = test: Analgesic activity in mouse model of acetic-acid induced writhing assessed as number of writhes at 30 mg/kg, po once daily administered for 3 days prior to acetic acid injection measured after 20 mins (reference value: 29.13+/-9.36); format: functional; conditions: time 3 day
RAW264.7 [5] = test: Inhibition of LPS induced NO production in mouse RAW264.7 cells at 0.1 uM in the presence of 500 ng/mL LPS measured after 24 hrs by Griess reagent based assay relative to control; format: functional
[6] = Acute oral toxicity in female kunming mouse assessed as signs of gross toxicity measured once daily for 14 days; conditions: in vivo, time 14 day
[7] = Acute oral toxicity in female kunming mouse assessed as effect on liver histopathology at 2000 mg/kg measured once daily for 14 days; format: organism-based; conditions: in vivo, 336 h, time 14 day
Mus musculus [8] = test: Antiinflammatory activity in mouse xylene induced ear edema model assessed as ear weight difference at 30 mg/kg, po once daily administered for 3 days prior to xylene stimulation and measured after 30 mins (reference value: 13.64 =/- 2.55 mg); format: functional; conditions: time 3 day
[9] = Acute oral toxicity in female kunming mouse assessed as survival at 2000 mg/kg measured once daily for 14 days; format: organism-based; conditions: in vivo, 336 h, time 14 day
[10] = Selectivity index, ratio of IC50 for ovine COX-1 to IC50 for human COX-2
[11] = target: T2, Prostaglandin G/H synthase 2 (Homo sapiens, UniProt P35354); test: Inhibition of human recombinant COX-2 assessed as production of PGE2 using arachidonic acid as a substrate preincubated for 60 mins followed by substrate addition and measured after 2 mins by ELISA analysis
T2 sequence (P35354 whole entry): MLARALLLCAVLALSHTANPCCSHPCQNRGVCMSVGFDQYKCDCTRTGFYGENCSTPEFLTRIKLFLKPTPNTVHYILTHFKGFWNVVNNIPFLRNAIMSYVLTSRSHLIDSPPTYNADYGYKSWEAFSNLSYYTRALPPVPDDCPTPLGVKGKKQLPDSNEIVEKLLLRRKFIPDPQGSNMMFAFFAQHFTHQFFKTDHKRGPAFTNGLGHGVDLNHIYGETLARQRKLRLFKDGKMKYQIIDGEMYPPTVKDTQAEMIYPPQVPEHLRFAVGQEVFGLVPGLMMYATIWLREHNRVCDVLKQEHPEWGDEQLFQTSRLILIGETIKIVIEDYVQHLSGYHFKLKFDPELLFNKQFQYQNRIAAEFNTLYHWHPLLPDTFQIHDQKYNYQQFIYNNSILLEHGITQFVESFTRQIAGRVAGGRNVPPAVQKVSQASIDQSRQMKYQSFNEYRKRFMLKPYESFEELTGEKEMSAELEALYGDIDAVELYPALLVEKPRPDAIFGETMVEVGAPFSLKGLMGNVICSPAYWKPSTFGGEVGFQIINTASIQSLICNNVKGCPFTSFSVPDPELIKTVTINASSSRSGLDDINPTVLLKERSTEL

RAW264.7 [12] = test: Inhibition of LPS induced NO production in mouse RAW264.7 cells at 0.01 uM in the presence of 500 ng/mL LPS measured after 24 hrs by Griess reagent based assay relative to control; format: functional
[13] = target: T3, Prostaglandin G/H synthase 1 (Ovis aries, UniProt P05979); test: Inhibition of ovine COX-1 assessed as production of PGE2 using arachidonic acid as a substrate preincubated for 60 mins followed by substrate addition and measured after 2 mins by ELISA analysis
T3 sequence (P05979 whole entry): T1 sequence (whole entry)

Mus musculus [14] = test: Analgesic activity in mouse model of acetic-acid induced writhing assessed as inhibition of writhing at 30 mg/kg, po once daily administered for 3 days prior to acetic acid injection measured after 20 mins relative to control; format: functional; conditions: 72 h, time 3 day
RAW264.7 [15] = test: Inhibition of LPS induced NO production in mouse RAW264.7 cells at 10 uM in the presence of 500 ng/mL LPS measured after 24 hrs by Griess reagent based assay relative to control; format: functional
RAW264.7 [16] = test: Cytotoxicity against mouse RAW 264.7 cells assessed as decreased cell viability at 0.01 to 10 uM measured after 18 hrs by MTT assay; format: cell-based; conditions: raw264.7, 18 h, dose 0.01-10 µM
RAW264.7 [17] = test: Inhibition of LPS induced NO production in mouse RAW264.7 cells at 1 uM in the presence of 500 ng/mL LPS measured after 24 hrs by Griess reagent based assay relative to control; format: functional
RAW264.7 [18] = test: Inhibition of LPS induced NO production in mouse RAW264.7 cells at 100 uM in the presence of 500 ng/mL LPS measured after 24 hrs by Griess reagent based assay relative to control; format: functional
[19] = Solubility of the compound in water; format: physicochemical; conditions: buffer
Mus musculus [20] = test: Antiinflammatory activity in mouse xylene induced ear edema model assessed as inhibition of auricular edemas at 30 mg/kg, po once daily administered for 3 days prior to xylene stimulation and measured after 30 mins relative to control; format: functional; conditions: 72 h, time 3 day
[21] = Acute oral toxicity in female kunming mouse assessed as effect on kidney histopathology at 2000 mg/kg measured once daily for 14 days; format: organism-based; conditions: in vivo, 336 h, time 14 day
[22] = target: T1, Prostaglandin G/H synthase 1 (Ovis aries); test: Inhibition of ovine COX-1 assessed as production of PGE2 using arachidonic acid as a substrate preincubated for 60 mins at 0.1 uM followed by substrate addition and measured after 2 mins by ELISA analysis relative to control
[23] = target: T1, Prostaglandin G/H synthase 1 (Ovis aries); test: Inhibition of ovine COX-1 assessed as production of PGE2 using arachidonic acid as a substrate preincubated for 60 mins at 10 uM followed by substrate addition and measured after 2 mins by ELISA analysis relative to control

SMILES: Cc1ccc(-c2cc(C)n(S(=O)(=O)Oc3ccccc3Cl)n2)cc1
- inhibition [1]: 24%
- Activity (RAW264.7 [2]): 80%
- inhibition [3]: 33%
- Activity (Mus musculus [4]): 15
- inhibition at 0.1 µM (RAW264.7 [5]): 23.6%
- LD50 at 336 h [6]: > 2000 mg/kg
- Activity [7]: Non-Toxic
- Activity (Mus musculus [8]): 9.96 mg
- Activity [9]: Non-Toxic
- Ratio [10]: > 189
- IC50 [11]: 530 nM
- inhibition at 0.01 µM (RAW264.7 [12]): 12.6%
- IC50 [13]: > 100000 nM
- inhibition in vivo at 30 mg/kg (Mus musculus [14]): 48.5%
- inhibition at 10 µM (RAW264.7 [15]): 22%
- Activity (RAW264.7 [16]): 80%
- inhibition at 1 µM (RAW264.7 [17]): 23.8%
- inhibition at 100 µM (RAW264.7 [18]): 29.4%
- solubility [19]: Insoluble
- inhibition in vivo at 30 mg/kg (Mus musculus [20]): 27%
- Activity [21]: Non-Toxic
- inhibition [22]: 20%
- inhibition [23]: 26%

SMILES: Cc1ccc(-c2cc(C)n(S(=O)(=O)Oc3ccc(I)cc3)n2)cc1
- inhibition [1]: 35%
- Activity (RAW264.7 [2]): 40%
- inhibition [3]: 48%
- Activity (Mus musculus [4]): 24.13
- Activity [7]: Non-Toxic
- Activity (Mus musculus [8]): 9.96 mg
- Activity [9]: Non-Toxic
- Ratio [10]: 10500
- IC50 [11]: 9.2 nM
- IC50 [13]: 96600 nM
- inhibition in vivo at 30 mg/kg (Mus musculus [14]): 17.2%
- Activity (RAW264.7 [16]): Non-Toxic
- solubility [19]: Insoluble
- inhibition in vivo at 30 mg/kg (Mus musculus [20]): 27%
- Activity [21]: Non-Toxic
- inhibition [22]: 17%
- inhibition [23]: 41%

- solubility [19]: Insoluble
SMILES: Cc1ccc(-c2cc(C(F)(F)F)nn2-c2ccc(S(N)(=O)=O)cc2)cc1 [CELECOXIB]
- Activity (Mus musculus [4]): 18.63
- inhibition at 0.1 µM (RAW264.7 [5]): 19.6%
- Activity (Mus musculus [8]): 9.79 mg
- inhibition at 0.01 µM (RAW264.7 [12]): 16.5%
- inhibition at 10 µM (RAW264.7 [15]): 14.8%
- Activity (RAW264.7 [16]): 80%
- inhibition at 1 µM (RAW264.7 [17]): 16.5%
- inhibition at 100 µM (RAW264.7 [18]): 50.2%
- inhibition in vivo at 30 mg/kg (Mus musculus [20]): 28.2%

SMILES: Cc1ccc(-c2cc(C)n(S(=O)(=O)Oc3ccccc3)n2)cc1
- inhibition [1]: 55%
- inhibition [3]: 70%
- Activity (Mus musculus [4]): 14.38
- inhibition at 0.1 µM (RAW264.7 [5]): 18.1%
- LD50 at 336 h [6]: > 2000 mg/kg
- Activity (Mus musculus [8]): 11.57 mg
- Ratio [10]: 455
- IC50 [11]: 1.1 nM
- inhibition at 0.01 µM (RAW264.7 [12]): 10.5%
- IC50 [13]: 500 nM
- inhibition in vivo at 30 mg/kg (Mus musculus [14]): 50.7%
- inhibition at 10 µM (RAW264.7 [15]): 21.1%
- inhibition at 1 µM (RAW264.7 [17]): 19.3%
- inhibition at 100 µM (RAW264.7 [18]): 31.6%
- solubility [19]: Insoluble
- inhibition in vivo at 30 mg/kg (Mus musculus [20]): 15.2%
- inhibition [22]: 34%
- inhibition [23]: 72%
